# Laboratory results from patent publication US9963461B2, “Phillygenin ibuprofen ester, preparation method therefor, and application thereof” (priority 2014, dated 2018).
# Marks after values point to notes of the source that are not given here.
# Columns and labels:
# [1] = test system: coxsackie virus B3 (CVB3); assay: Impact of the drugs on the virus-induced cytopathy (MTT); assay type: cell-based; conditions: CVB3 100 TCID50, Vero cells, about the maximal non-cytotoxic concentration, 72 hours
# influenza virus [2] = assay: as above; assay type: cell-based; conditions: influenza virus 100 TCID50, Vero cells, about the maximal non-cytotoxic concentration, 72 hours
# [3] = test system: Coxsackie virus A16 (CoxA16); assay: as above; assay type: cell-based; conditions: CoxA16 100 TCID50, Vero cells, about the maximal non-cytotoxic concentration, 72 hours
# parainfluenza virus [4] = assay type: in vivo, Kunming mice; conditions: parainfluenza virus infected mice; 19.5 mg/kg/d intragastric, 5 days
# Enterovirus EV71 = assay: Impact of the drugs on the virus-induced cytopathy (MTT); assay type: cell-based; conditions: EV71 100 TCID50, Vero cells, about the maximal non-cytotoxic concentration, 72 hours
# influenza virus [5] = assay type: in vivo, Kunming mice; conditions: lung suspensions, influenza virus infected mice; 19.5 mg/kg/d, 5 days
# [6] = test system: respiratory syncytial virus (RSV); assay: Impact of the drugs on the virus-induced cytopathy (MTT); assay type: cell-based; conditions: RSV 100 TCID50, Vero cells, about the maximal non-cytotoxic concentration, 72 hours
# parainfluenza virus [7] = assay: as above; assay type: cell-based; conditions: parainfluenza virus 100 TCID50, Vero cells, about the maximal non-cytotoxic concentration, 72 hours
# [8] = test system: Herpes Simplex Virus type I (HSV-1); assay: as above; assay type: cell-based; conditions: HSV-I 100 TCID50, Vero cells, about the maximal non-cytotoxic concentration, 72 hours
# Adenovirus (AdV) = assay: as above; assay type: cell-based; conditions: ADV 100 TCID50, Vero cells, about the maximal non-cytotoxic concentration, 72 hours
# parainfluenza virus [9] = assay type: in vivo, Kunming mice; conditions: lung suspensions, parainfluenza virus infected mice; 19.5 mg/kg/d, 5 days
# influenza virus [10] = assay type: in vivo, Kunming mice; conditions: influenza virus infected mice; 19.5 mg/kg/d intragastric, 5 days
# Vero cell = assay: Cytotoxicity test on Vero cell (MTT); conditions: 72 hours
smiles,measurement,setting,value
"CCOC(=O)C1=C[C@@H](OC(CC)CC)[C@H](NC(C)=O)[C@@H](N)C1 [Oseltamivir phosphate, oseltamivir phosphate]",antiviral effective rate (ER %),[1],1.64%
same,antiviral effective rate (ER %),influenza virus [2],81.76** %
same,antiviral effective rate (ER %),[3],2.95%
same,Lung index (X ± S),parainfluenza virus [4],1.243 ± 0.052
same,Lung index Inhibitive rate (%),parainfluenza virus [4],21.85%
same,antiviral effective rate (ER %),Enterovirus EV71,51.86%
same,Hemagglutination titer (InX),influenza virus [5],20.50 ± 1.122
same,Hemagglutination titer Inhibitive rate (%),influenza virus [5],36.73%
same,antiviral effective rate (ER %),[6],37.60%
same,antiviral effective rate (ER %),parainfluenza virus [7],94.52** %
same,antiviral effective rate (ER %),[8],66.56** %
same,antiviral effective rate (ER %),Adenovirus (AdV),10.31%
same,Hemagglutination titer (InX),parainfluenza virus [9],22.05 ± 1.055
same,Hemagglutination titer Inhibitive rate (%),parainfluenza virus [9],33.44%
same,Lung index (X ± S),influenza virus [10],1.178 ± 0.066
same,Lung index Inhibitive rate (%),influenza virus [10],19.84%
same,Median toxic concentration (TC50),Vero cell,832 mg/L
same,maximal non-toxic concentration (TC0),Vero cell,0.28 g/L
